The results in this text go back to PMC5007466, “VCP recruitment to mitochondria causes mitophagy impairment and neurodegeneration in models of Huntington's disease” (Nature Communications, 2016).

Data set [1] has as its system HD mouse striatal cells. Kind of data set: ER stress response (GRP78 western blot). It is filed as cell-based. The note with it: thapsigargin 1 μM or tunicamycin 10 μg/ml, 16 h, with HV-3 3 µM. Here is the method: (§1) mouse striatal cells were treated with thapsigargin (1μM) or tunicamycin (10μ g/ml) for 16 hours i n the presence or absence of HV -3 (3 µM). GRP78 total protein levels were determined by western blot analysis. Representative blots of three independent experiments are shown. Actin was used here as a loading control. (b) Tw e n t y -four hours of serum starvation was performed in HD mouse striatal cells.
(§2) Caspase-3 activity analysis was performed in the indicated groups. Data are mean ± SEM of three independent experiments. (c) Flag-VCP and GFP-LC3B were co-transfected into HdhQ7 striatal cells.
(§3) Total lysates were isolated after 36 hours of transfection. The GFP -LC3B levels were examined by western blot analysis. Actin was used as a loading control. Histogram: quantitation of GFP-LC3B total protein level. Data are mean ± SEM of three independent experiments.
(§4) (1 picture or pasted object on this page, not shown here)

Data set [2] deals with HD patient-iPS cell derived neurons. Kind of data set: Mitochondrial length along neurites. The note with it: 1 μM per day for 5 days. In kind it is cell-based, human. On the procedure: iPS cells from a normal subject and a HD patient (carrying 41 CAG repeats) were differentiated into neurons using the protocol from our previous studies. Briefly, iPS cells were plated onto 6-well plates precoated with 2.5% Matrigel and allowed to reach 90% confluence in feeder-free medium. For the first 10 days, cells were treated with SB431542 (10 μM; Tocris Bioscience) and Noggin (100 ng/ml) in Neural Media (NM) containing Neurobasal and DMEM (1:1), B27 supplement minus vitamin A (50 × , Invitrogen), N2 supplement (100 × , Invitrogen), GlutaMax (Invitrogen, 100 × ), FGF2 ([…]) and EGF ([…]), 100 units per ml penicillin and 100 μg ml^−1 streptomycin). For the next 10 days, cells were treated with human recombinant Sonic hedgehog (SHH, 200 ng/ml), DKK1 (100 ng/ml) and BDNF (20 ng/ml) and 10 μM Y27632 (Sigma) in neuronal differentiation medium containing Neurobasal and DMEM (1:3), B27, N2, GlutaMax and PS. […]
In patient-iPS cell-derived neurons, to ensure the observation of mitochondria in the medium spiny neurons, the cells were stained with a mitochondrial marker (anti-TOM20, 1:500) and markers for medium spiny neurons (DARPP-32, 1:200, Epitomics). The quantitation of neurite length was conducted only in the neurons immunopositive for both DARPP-32 and Tuj1 (neuron-specific class III beta-tubulin, 1:5,000, Covance). At least 50 neurons/group were counted.

Data set [3] relates to HD mouse striatal cells. Kind of data set: Caspase-3 activity (apoptosis). In kind it is cell-based. The conditions noted are these: 24 h serum starvation, HV-3. On the procedure:
as §1, §2, §3, §4

The test system of data set [4] is wt mice (YAC128 littermates). The data set is described as follows: Motor activity of wt littermates of YAC128. In kind it is in vivo, mouse. The conditions noted are these: 3 to 12 months of age, 3 mg/kg/day. Here is the method:
(§5) YAC128 mice (Tg) and their age-matched wt littermates were implanted with an osmotic pump containing TAT control peptide or HV-3 peptide (3 mg/kg/day, each) starting from the age of 3 months. The pump was replaced once every month. By the age of 12 months, the treatments were terminated and the mouse samples were harvested for analysis.
Gross locomotor activity was assessed in R6/2 mice and age-matched wt littermates at the ages of 13 weeks and in YAC128 mice and age-matched wt littermates at the ages of 2, 3, 6, 9, and 12 months. In an activity chamber (Omnitech Electronics, Inc), mice were placed in the center of the chamber and allowed to explore while being tracked by an automated beam system (Vertax, Omnitech Electronics Inc). Distance moved, horizontal, vertical, and rearing activities were recorded. Because R6/2 mice were sensitive to changes in environment and handling, we only conducted one-hour locomotor activity analysis for R6/2 mice and wt littermates. We performed 24 h of locomotor activity analysis for YAC128 mice and their wt littermates.
The motor coordination and balance of YAC128 mice were tested on an accelerating Rotarod (IITC Life Sciences, Serials 8) at the ages of 2, 3, 6, 9 and 12 months. Training and baseline testing for motor function tasks were conducted at 2 months of age. […]

Data set [5] relates to YAC128 mice. Kind of data set: DARPP-32 protein level in YAC128 striatal extracts. In kind it is in vivo, mouse. The conditions noted are these: 3 mg/kg/day, n=6. On the procedure: as §5
Protein concentrations were determined by Bradford assay. Protein was resuspended in Laemmli buffer, loaded on SDS–PAGE, and transferred onto nitrocellulose membranes. Membranes were probed with the indicated antibodies, followed by visualization with ECL. Representative blots have been cropped for presentation. Images of full-size blots are presented in Supplementary Fig. 9.

Data set [6] relates to YAC128 mice. The data set is described as follows: Stereology of NeuN-positive striatal neurons. The note with it: YAC128, 12 months of age, 3 mg/kg/day, n=6. It is filed as in vivo, mouse. On the procedure: as §5
To measure the number of NeuN-positive cells, a series of 25 μm thick coronal sections spaced 200 μm apart spanning the striatum were stained with NeuN antibody (Millipore, 1:500) and visualized by diaminobenzidine. For neuropathological analyses, brain sections were analysed stereologically. Briefly, unbiased stereological counts of NeuN-positive neurons within the striatum were performed using unbiased stereological principles and analysed with StereoInvestigator software (Microbrightfield, Williston, VT). Optical fractionator sampling was carried out on a Leica DM5000B microscope (Leica Microsystems, Bannockburn, IL) equipped with a motorized stage and Lucivid attachment ( × 40 objective). The following parameters were used in the final study: grid size, (X) 500 μm, (Y) 500 μm; Counting frame, (X) 68.2 μm, (Y) 75 μm, depth was 20 μm. […] The total volume of stratial tissue measured in each brain is calculated by StereoInvestigator and the neuronal density is presented as NeuN positive cell number per mm^3.

`CSCC[C@H](NC(=O)[C@@H](NC(=O)[C@H](CC(C)C)NC(=O)[C@@H](NC(=O)[C@H](Cc1c[nH]cn1)NC(=O)CCCCCNC(=O)[C@H](CCCNC(=N)N)NC(=O)[C@H](CCCNC(=N)N)NC(=O)[C@H](CCCNC(=N)N)NC(=O)[C@H](CCC(N)=O)NC(=O)[C@H](CCCNC(=N)N)NC(=O)[C@H](CCCNC(=N)N)NC(=O)[C@H](CCCCN)NC(=O)[C@H](CCCCN)NC(=O)[C@H](CCCNC(=N)N)NC(=O)CNC(=O)[C@@H](N)Cc1ccc(O)cc1)C(C)C)C(C)C)C(=O)N[C@@H](CS)C(=O)N[C@@H](C)C(=O)N[C@H](C(N)=O)[C@@H](C)O` [HV-3]: the “ER stress response (GRP78)” value in the data set on HD mouse striatal cells [1] is listed as “no effect on the ER stress response”. The “mitochondrial length along neurites” value in data set [2] is “improved MMP and mitochondrial length along neurites”. For the same compound, in the data set on HD mouse striatal cells [3], the “apoptosis (caspase-3 activity)” value is listed as “did not affect apoptosis”. For the same compound, the “motor activity of wt mice” value in data set [4] is reported as “did not affect motor activity in wt mice”. In addition, in the data set with YAC128 mice [5], the DARPP-32 protein level result is “significantly increased DARPP-32 levels in the two mouse models”. The “NeuN-positive neurons in dorsolateral striatum” value in the data set on YAC128 mice [6] was “significantly increased the number of neurons positive for anti-NeuN immunostaining”.
